{"source": "patent US4591637A", "about": "“Open chain-morpholino adriamycins” (priority 1985, dated 1986)", "key": {"[1]": {"system": "DNA synthesis in L-1210 Cells", "test": "inhibition of DNA synthesis in L1210 cells in vitro", "assay_type": "cell-based", "conditions": "Mus musculus", "method": "(§1) An in vitro test measured inhibition of DNA and RNA synthesis in L-1210 Cells in the method described by Tong, G., et al, J Med Chem (1976) 19:395. ED50 levels (the dose at which 50% inhibition occurs) were computed and ED50 ratios for DNA/RNA determined.\n(§2) The compounds prepared in Examples 1-5 were tested for in vitro DNA and RNA synthesis inhibition activity and in vivo for ability to increase survival time in mice injected with P-388 leukemia cells as described above. The relative solubility in octanol and phosphate buffer, expressed as log10 p, was also determined, as well as the ΔTm of isolated helical DNA synthesized in the in vitro test."}, "[2]": {"system": "RNA synthesis in L-1210 Cells", "test": "inhibition of RNA synthesis in L1210 cells in vitro", "assay_type": "cell-based", "conditions": "Mus musculus", "method": "as §1, §2"}, "isolated helical DNA": {"system": "isolated helical DNA", "test": "ΔTm of isolated helical DNA", "assay_type": "binding", "method": "as §2"}, "physchem": {"test": "physchem", "assay_type": "physicochemical", "conditions": "octanol-phosphate buffer, pH 7.4", "method": "as §2"}, "P-388 leukemia": {"system": "P-388 leukemia", "test": "survival time of mice injected with P-388 leukemia cells", "assay_type": "in vivo", "conditions": "mouse P388, qd 1, 10 mg/kg; T/C = treated survival time/untreated survival time×100", "method": "Survival times and % T/C (treated survival time/untreated survival time×100) were determined, as well as dosage levels required.\nThe relative solubility in octanol and phosphate buffer, expressed as log10 p, was also determined, as well as the ΔTm of isolated helical DNA synthesized in the in vitro test."}, "[3]": {"conditions": "L1210, read-out: L1210 cells inhib of synth, ED50, DNA"}, "[4]": {"conditions": "L1210, read-out: L1210 cells inhib of synth, ED50, RNA"}, "[5]": {"conditions": "L1210 cells, DNA synthesis, ED50 = dose at which 50% inhibition occurs, read-out: L1210 cells inhib of synth, ED50, DNA"}, "[6]": {"conditions": "L1210 cells, RNA synthesis, ED50 = dose at which 50% inhibition occurs, read-out: L1210 cells inhib of synth, ED50, RNA"}, "[7]": {"conditions": "read-out: log10 p, octanol-phosphate buffer at pH 7.4"}}, "note": "Where two headings read alike, the source gives them in different places."}
{"compound": "COCC(C#N)N[C@H]1C[C@H](O[C@H]2C[C@](O)(C(=O)CO)Cc3c(O)c4c(c(O)c32)C(=O)c2c(OC)cccc2C4=O)O[C@@H](C)[C@H]1O", "note": "(stereo partly drawn) [N--(1-cyano-2-methoxy-ethyl)doxorubicin, N-(1-cyano-2-methoxyethyl)doxorubicin]", "values": [{"measurement": "IC50", "setting": "[1]; [3]", "value": 800, "unit": "nM"}, {"measurement": "IC50", "setting": "[2]; [4]", "value": 400, "unit": "nM"}, {"measurement": "ΔTm of isolated helical DNA", "setting": "isolated helical DNA", "value": 12.5, "unit": "°C"}]}
{"compound": "COc1cccc2c1C(=O)c1c(O)c3c(c(O)c1C2=O)C[C@@](O)(C(=O)CO)C[C@@H]3O[C@H]1C[C@H](N)[C@H](O)[C@H](C)O1", "note": "[Doxorubicin, doxorubicin, reference compound]", "values": [{"measurement": "IC50", "setting": "[1]; [5]", "value": 1600, "unit": "nM"}, {"measurement": "IC50", "setting": "[2]; [6]", "value": 580, "unit": "nM"}, {"measurement": "ΔTm of isolated helical DNA", "setting": "isolated helical DNA", "value": 12.8, "unit": "°C"}, {"measurement": "logD", "setting": "physchem", "value": 0.07}, {"measurement": "Mouse P388 qd 1, % T/C (mg/kg)", "setting": "P-388 leukemia", "value": 258, "unit": "% T/C"}]}
{"compound": "COc1cccc2c1C(=O)c1c(O)c3c(c(O)c1C2=O)C[C@@](O)(C(C)=O)C[C@@H]3O[C@H]1C[C@H](N)[C@H](O)[C@H](C)O1", "note": "[Daunorubicin, daunorubicin, reference compound]", "values": [{"measurement": "IC50", "setting": "[1]; [5]", "value": 660, "unit": "nM"}, {"measurement": "IC50", "setting": "[2]; [6]", "value": 330, "unit": "nM"}, {"measurement": "ΔTm of isolated helical DNA", "setting": "isolated helical DNA", "value": 10.5, "unit": "°C"}, {"measurement": "logD", "setting": "physchem; [7]", "value": 0.66}]}
{"compound": "COc1cccc2c1C(=O)c1c(O)c3c(c(O)c1C2=O)C[C@@](O)(C(C)=O)C[C@@H]3O[C@H]1C[C@H](NCC#N)[C@H](O)[C@H](C)O1", "note": "[N--(cyanomethyl)-daunorubicin, N-(cyanomethyl)daunorubicin]", "values": [{"measurement": "IC50", "setting": "[1]; [3]", "value": 1750, "unit": "nM"}, {"measurement": "IC50", "setting": "[2]; [4]", "value": 820, "unit": "nM"}, {"measurement": "ΔTm of isolated helical DNA", "setting": "isolated helical DNA", "value": 11.7, "unit": "°C"}]}
{"compound": "COc1cccc2c1C(=O)c1c(O)c3c(c(O)c1C2=O)C[C@@](O)(C(=O)CO)C[C@@H]3O[C@H]1C[C@H](NCC#N)[C@H](O)[C@H](C)O1", "note": "[N--(cyanomethyl)-doxorubicin]", "values": [{"measurement": "IC50", "setting": "[1]; [3]", "value": 1200, "unit": "nM"}, {"measurement": "IC50", "setting": "[2]; [4]", "value": 290, "unit": "nM"}, {"measurement": "ΔTm of isolated helical DNA", "setting": "isolated helical DNA", "value": 13.9, "unit": "°C"}]}
{"compound": "COCC(C#N)N[C@H]1C[C@H](O[C@H]2C[C@](O)(C(C)=O)Cc3c(O)c4c(c(O)c32)C(=O)c2c(OC)cccc2C4=O)O[C@@H](C)[C@H]1O", "note": "(stereo partly drawn) [N--(1-cyano-2-methoxy-ethyl)daunorubicin, N-(1-cyano-2-methoxyethyl)Dau]", "values": [{"measurement": "IC50", "setting": "[1]; [3]", "value": 510, "unit": "nM"}, {"measurement": "IC50", "setting": "[2]; [4]", "value": 510, "unit": "nM"}, {"measurement": "logD", "setting": "physchem; [7]", "value": 2.64}]}
